The values below come from patent US20100324067A1, “TETRACYCLIC DIPYRANO-COUMARIN COMPOUNDS WITH ANTI-HIV AND ANTI-MYCOBACTERIUM TUBERCULOSIS ACTIVITIES” (priority 2007, published 2010).

Series [1] relates to CEM-SS cells (human T-lymphoblastic cells). Particulars: cited from earlier work.
The next series deals with H37Rv strain. Particulars: H37Rv strain growth; Bioorg. Med. Chem., 2004, 1199-1207; cited from earlier work.
Series [2] deals with HIV-1. Put plainly: Inhibitory activity against HIV-1 (literature method, Chen et al. J Virol 1997). The following applies: Human immunodeficiency virus 1, read-out: Anti-HIV (%, 1.0 μM). How it is done:
Inhibitory activity of the coumarin derivatives of the present invention against HIV-1.
Inhibitory activity of the compounds against HIV-1 is assayed using the literature method. The experimental conditions, procedures, reagents and so on of the experiment are referred to the reference of “ZHIWEI CHEN, PEI ZHOU, DAVID D. HO, et al. Genetically divergent strains of simian immuno-deficiency virus use CCR5 as a coreceptor for entry. Journal of Virology, 1997, 71(4): 2705-2714”.

For a further series, the system named is host cells of the virus. Nature of the series: Cell toxicity to the host cells of the virus at 10 μM. It is filed as cell-based.
For series [3], the system named is HIV-1. The following applies: cited from earlier work.
Series [4] relates to Mycobacterium tuberculosis H37Rv (ATCC 27294). Nature of the series: Microplate Alamar Blue Assay (MABA) in BACTEC 12B medium (TAACF screen). Format: cell-based. The following applies: for MIC90: MABA, H37Rv, read-out: MIC90. On the technique in general: Resazurin is reduced to fluorescent resorufin, in cell work by metabolically active cells.

Converted amounts (≈) assume the structure as drawn. Where two headings read alike, the source gives them in different places.

By CC50 is commonly meant the concentration giving 50% cytotoxicity. What is called MIC90 is the lowest concentration that inhibits either 90% of growth or 90% of the strains tested, depending on the study. As a reminder, the EC50 is the concentration giving half of the maximal effect. Turning to `CCCc1cc(=O)oc2c3c(c4c(c12)OC(C)(C)C=C4)O[C@H](C)[C@@H](C)[C@@H]3O` [(+)-Calanolide A, (+)-calanolide A], the half-maximal cytotoxic concentration (CC50) in series [1] is 20000 nM. Besides, the MIC90 in the series with H37Rv strain is 3.13 µg/mL (≈ 8.45 µM). For the same compound, the inhibition at 1 µM with HIV-1 [2] was found to be 86%. Also, the “Cell toxicity (10 μM), number printed before the class symbol” value in the series on host cells of the virus (10 μM) turned out to be 6%. Besides, the “therapeutic index (TI)” value in the series with HIV-1 [3] (J. MED. CHEM. 1996, 39, 1303) is given as 16-279. For the same compound, the half-maximal effective concentration (EC50) with HIV-1 [3] (anti-HIV-1, literature, read-out: EC50) was 100 nM; in the series on HIV-1 [3] (from J. Med. Chem. 1996, 39(6):1303-13, unit inferred, read-out: EC50 (TI)), 100 to 200 nM. Also, in the series with HIV-1 [3] (resistant strain A17), the “activity against TIBO of pyridinone-resistant A17 strains” value is listed as “active”. Besides, the “activity against AZT-1-resistant strains (G-9106) of HIV-1” value in the series on HIV-1 [3] (resistant strain G-9106) is “active”.

What is called IC50 is the concentration needed to halve the response being measured. A higher IC50 goes with weaker potency in that assay. Usually melting point stands for the temperature of the solid-liquid transition. For `C/C=C/C1C=Cc2c3c(c4oc(=O)c(F)c(CC)c4c2O1)C(=O)CC(C)O3` (stereo not shown) [Example 88, 4-ethyl-6-propenyl-3-fluoro-10-methyl-2H,6H,12H-benzo[1,2-b:3,4-b′:5,6-b″]-tripyranyl-2,12-dione], the melting point was in the range of 158 to 161 °C. Moreover, in the series with HIV-1 [2], the inhibition at 1 µM came to 46.2%. Further, in series [4], half-maximal inhibition (IC50) required 70.7 µg/mL (≈ 191 µM) and the MIC90 was more than 100 µg/mL. Besides, the “Cell toxicity (10 μM)” value in the series on host cells of the virus was “−”.

Turning to `CCCc1c(Cl)c(=O)oc2c3c(c4c(c12)OCC(C)C4OCC)OC(C)CC3=O` (stereo not shown) [Example 96, 8-ethoxyl-7,10-dimethyl-4-n-propyl-3-chloro-7,8,10,11-tetrahydro-6H-benzo[2,3-f;2′,3′-h]-tripyranyl-2,12-dione], the melting point lay in the range of 187 to 189 °C. For the same compound, the inhibition at 1 µM in the series with HIV-1 [2] came to 51.7%. For the same compound, in series [4], half-maximal inhibition (IC50) was put at 11.1 µg/mL (≈ 26.4 µM) and the MIC90 is 22.2 µg/mL (≈ 52.8 µM). The “Cell toxicity (10 μM)” value in the series on host cells of the virus is listed as “−”.
